This is an account of results in patent US20250092065A1, “2-(INDAZOL-5-YL)-6-(PIPERIDIN-4-YL)-1,7-NAPHTHYRIDINE DERIVATIVES AND RELATED COMPOUNDS AS MODULATORS FOR SPLICING NUCLEIC ACIDS AND FOR THE TREATMENT OF PROLIFERATIVE DISEASES” (REMIX THERAPEUTICS INC., priority 2022, published 2025).

A word on the IC50: it is the concentration at which inhibition is half-maximal. Usually AC50 stands for the midpoint of the concentration-response curve, whichever way the signal moves.

Like-named read-outs stand apart in the source and are kept apart here.

The subject of series [1] is K562 cells. Nature of the series: Cell Titer Glo 2.0 cell viability (toxicity) assay, K562. Particulars: 500 cells/well, 72 hours. On the technique in general: In ATP-based viability assays light output follows the ATP content of the culture.
Series [2] deals with Target C. The series is described as follows: RT-qPCR canonical junction panel assay, Target C mRNA. It counts as cell-based. Conditions: Table 4, read-out: Target C IC50 (decrease in CJ mRNA levels). Here is the method: Compounds described herein were used to modulate RNA transcript abundance in cells. The expression of a target mRNA was measured by detecting the formation of an exon-exon junction in the canonical transcript (CJ). A compound mediated exon-inclusion event was detected by observing an increase in formation of a new junction with an alternative exon (AJ). Real-time qPCR assays were used to detect these splicing switches and interrogate the potency of various compounds towards different target genes. A high-throughput real time quantitative PCR (RT-qPCR) assay was developed to measure these two isoforms of the mRNA (CJ and AJ) for exemplary genes, such as HTT, SMN2, and MYB, together with a control housekeeping gene, GAPDH or GUSB or PPIA, used for normalization. Briefly, the A673 or K562 cell line was treated with various compounds described herein (e.g., compounds of Formula (I)). After treatment, the levels of the HTT, MYB, or SMN2 mRNA targets were determined from each sample of cell lysate by cDNA synthesis followed by qPCR.
The data analysis was performed by first determining the ΔCt vs the housekeeper gene. This ΔCt was then normalized against the DMSO control (ΔΔCt) and converted to RQ (relative quantification) using the 2^(−ΔΔCt) equation. The RQ were then converted to a percentage response by arbitrarily setting an assay window of 3.5 and 4.0 ΔCt for HTT-CJ and MYB-CJ respectively and an assay window of 9 and 3 ΔCt for HTT-AJ and MYB-AJ in 96 well format (50,000 K562 cells/well and 15,000 A673 cells per well) and an assay window of 3 and 4 ΔCt for HTT-CJ and MYB-CJ respectively and an assay window of 5 and 3 ΔCt for HTT-AJ and MYB-AJ respectively in 384 well format (8,000 K562 cells/well example). […] The percentage response was then fitted to the 4 parametric logistic equation to evaluate the concentration dependence of compound treatment. The increase in AJ mRNA is reported as AC50 (compound concentration having 50% response in AJ increase) while the decrease in CJ mRNA levels is reported as IC50 (compound concentration having […] in CJ decrease).
Additional studies were carried out for a larger panel of genes using the protocol provided above. The junction between flanking upstream and downstream exons was used to design canonical junction Qpcr assays. At least one of the forward primer, reverse primer or the CY5-labeled 5′ nuclease probe (with 3′ quencher such as ZEN/Iowa Black FQ) was designed to overlap with the exon junction to capture the CJ Mrna transcript. BLAST was used to confirm the specificity of the probeset and parameters suCH As melting temperature, GC content, amplicon size, and primer dimer formation are considered during their design. Data for the decrease in CJ Mrna levels for four exemplary genes (HTT, SMN2, MYB, and Target C) analyzed in this panel are reported as IC50 (compound concentration having […] in CJ decrease).

The test system of series [3] is MYB mRNA. Nature of the series: RT-qPCR splicing assay, MYB mRNA canonical (CJ) and alternative (AJ) junction. It counts as cell-based, human. Particulars: Homo sapiens. The method, boiled down: (§1)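 A673 or K562 cells treated 24 h at 37 °C with 11-point 3-fold dilutions (top final 10 uM, DMSO ≤0.25%). Lysates analysed by one-step RT-qPCR for canonical (CJ) and alternative-exon (AJ) junctions, normalized to GAPDH, GUSB or PPIA. ΔΔCt vs DMSO, RQ = 2^(−ΔΔCt), expressed as percentage response.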
A general note: In qPCR the cycle at which signal appears reflects the starting amount.

Series [4] relates to HTT mRNA. The series is described as follows: RT-qPCR splicing assay, HTT mRNA canonical (CJ) and alternative (AJ) junction. The series is classed as cell-based, human. Conditions: Homo sapiens. The procedure, abridged: as §1
The test system of series [5] is Target C. Nature of the series: HiBiT protein abundance assay, Target C (K562 HiBiT knock-in). It counts as cell-based, human. Particulars: HiBiT knock-in K562 cells, 24 hours, top dose 10 μM. The procedure, abridged:
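K562 HiBiT knock-in cells (10000/well) were treated 24 h at 37° C with a 10-point 3-fold dilution series (top 10 μM final, ≤0.25% DMSO). HiBiT luminescence was read after lytic LgBiT detection. Percent response used unmodified K562 and DMSO-treated knock-in controls, and IC50 came from a four-parameter fit at 50% of untreated.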

Series [6] relates to HTT. Nature of the series: HiBiT protein abundance assay, HTT (K562 HiBiT knock-in). It counts as cell-based, human. Conditions: HiBiT knock-in K562 cells, 24 hours, top dose 10 μM. The method, boiled down: (§2)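 Steps: seed HiBiT knock-in K562 cells; add compound in 10-point 3-fold series from 10 μM final; incubate 24 h, 37 °C; add lytic HiBiT reagent, shake 5 min, wait 10 min; read luminescence. Normalize to parental K562 and DMSO controls, fit 4PL, take IC50.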
In general terms: HiBiT is a short tag that completes a luciferase, so light tracks the accessible tagged protein.

The test system of series [7] is SMN2 mRNA. Nature of the series: RT-qPCR splicing assay, SMN2 mRNA. It counts as cell-based, human. Conditions: Homo sapiens, canonical junction qPCR panel, Table 4; read-out: SMN2 IC50 (decrease in CJ mRNA levels). The method, boiled down: as §1
The test system of series [8] is MYB. Nature of the series: HiBiT protein abundance assay, MYB (K562 HiBiT knock-in). It counts as cell-based, human. Conditions: HiBiT knock-in K562 cells, 24 hours, top dose 10 μM. The method, boiled down:
as §2

[9] abbreviates: RT-qPCR, MYB alternative junction mRNA increase, read-out: MYB AJ (increase in alternative junction mRNA, AC50).
Setting [10] is: RT-qPCR, MYB canonical junction mRNA decrease, read-out: MYB CJ (decrease in canonical junction mRNA, IC50).
Setting [11] is: canonical junction qPCR panel, Table 4, read-out: MYB IC50 (decrease in CJ mRNA levels).
[12] abbreviates: RT-qPCR, HTT alternative junction mRNA increase, read-out: HTT AJ (increase in alternative junction mRNA, AC50).
[13] abbreviates: RT-qPCR, HTT canonical junction mRNA decrease, read-out: HTT CJ (decrease in canonical junction mRNA, IC50).
Setting [14] is: canonical junction qPCR panel, Table 4, read-out: HTT IC50 (decrease in CJ mRNA levels).
The mark [15] stands for this setting: MYB alternative junction mRNA, RT-qPCR, read-out: MYB AJ (increase in AJ mRNA, AC50).
Setting [16] is: MYB canonical junction mRNA, RT-qPCR, read-out: MYB CJ (decrease in CJ mRNA levels, IC50).
[17] abbreviates: HTT alternative junction mRNA, RT-qPCR, read-out: HTT AJ (increase in AJ mRNA, AC50).
The mark [18] stands for this setting: HTT canonical junction mRNA, RT-qPCR, read-out: HTT CJ (decrease in CJ mRNA levels, IC50).

On to `Cc1c(O)c(-c2nc(C3CCC3)c3cc(N4C[C@H](C)N[C@@H](C)C4)ccc3n2)cc2cn(C)nc12` (single isomer, unassigned) [Compound 794], for which the “Effect of Exemplary Compounds on Cell Viability, K562” value (shortened to “Effect of Exemplary Compounds”) in series [1] was “B (B represents 100-1000 nM)”. For the same compound, the IC50 is > 10000 nM in series [2]; 100 to 1000 nM in series [3] (setting [10]); 100 to 1000 nM in series [3] (setting [11]); > 10000 nM in series [4] (setting [13]); > 10000 nM in series [4] (setting [14]). For the same compound, the AC50 in series [3] (setting [9]) lay in the range of 100 to 1000 nM; in series [4] (setting [12]) it was 1000 to 10000 nM.
`Cc1cn2nc(-c3ncc4cc(N5C[C@H](C)N[C@@H](C)C5)ccc4n3)cc(C)c2n1` (single isomer, unassigned) [Compound 798]: the “Effect of Exemplary Compounds” value in series [1] is reported as “C (C represents 1000-9999 nM)”. The IC50 in series [2] is > 10000 nM; in series [3] (setting [10]), 1000 to 10000 nM; in series [3] (setting [11]), 1000 to 10000 nM; in series [4] (setting [13]), > 10000 nM; in series [4] (setting [14]), > 10000 nM. Moreover, the AC50 in series [3] (setting [9]) was 100 to 1000 nM; in series [4] (setting [12]), > 10000 nM.
For `Cc1nc2cc(O)c(-c3ccc4nc(N5CC[C@H](NC6(C)CC6)C5)ccc4n3)cc2o1` [Compound 257], the IC50 in series [5], in series [6], in series [7], in series [8], in series [3] (setting [16]) and in series [3] (setting [11]) was < 100 nM in each case. Moreover, the IC50 in series [4] (setting [18]) and in series [4] (setting [14]) was < 100 nM throughout. Moreover, the “Effect of Exemplary Compounds” value in series [1] is recorded as “B (B represents 100-1000 nM)”. In addition, the AC50 in series [3] (setting [15]) and in series [4] (setting [17]) was < 100 nM throughout.
`Cc1nc2cc(O)c(-c3ccc4nc(N5CC[C@@H](NC6(C)CC6)C5)ccc4n3)cc2o1` [Compound 258]: the IC50 in series [5] is 100 to 1000 nM; in series [6], 100 to 1000 nM; in series [7], < 100 nM; in series [8], 100 to 1000 nM; in series [3] (setting [16]), 100 to 1000 nM; in series [3] (setting [11]), 100 to 1000 nM. The IC50 in series [4] (setting [18]) and in series [4] (setting [14]) was < 100 nM each time. Moreover, in series [1], the “Effect of Exemplary Compounds” value is given as “C (C represents 1000-9999 nM)”. The AC50 in series [3] (setting [15]) is 100 to 1000 nM; in series [4] (setting [17]), < 100 nM.
On to `Cc1c(O)c(-c2ccc3nc(N4CC[C@@H](NC5CC5)C4)ccc3n2)cc2cn(C)nc12` [Compound 259], for which the IC50 in series [5], in series [6], in series [7], in series [8], in series [3] (setting [16]) and in series [3] (setting [11]) was < 100 nM in each case. Also, the IC50 in series [4] (setting [18]) and in series [4] (setting [14]) was < 100 nM in each case. Also, the “Effect of Exemplary Compounds” value in series [1] is “B (B represents 100-1000 nM)”. The AC50 in series [3] (setting [15]) and in series [4] (setting [17]) was < 100 nM in each case.
